Our source for the IC50 and inhibition values is ChEMBL document CHEMBL1126478, “The syntheses and binding affinities of tools for the study of angiotensin AT2 receptors” (Bioorg Med Chem Lett, 1993).

Test [1] has as its target T1, Type-2 angiotensin II receptor (Homo sapiens, UniProt P50052).
T1 sequence (P50052 whole entry): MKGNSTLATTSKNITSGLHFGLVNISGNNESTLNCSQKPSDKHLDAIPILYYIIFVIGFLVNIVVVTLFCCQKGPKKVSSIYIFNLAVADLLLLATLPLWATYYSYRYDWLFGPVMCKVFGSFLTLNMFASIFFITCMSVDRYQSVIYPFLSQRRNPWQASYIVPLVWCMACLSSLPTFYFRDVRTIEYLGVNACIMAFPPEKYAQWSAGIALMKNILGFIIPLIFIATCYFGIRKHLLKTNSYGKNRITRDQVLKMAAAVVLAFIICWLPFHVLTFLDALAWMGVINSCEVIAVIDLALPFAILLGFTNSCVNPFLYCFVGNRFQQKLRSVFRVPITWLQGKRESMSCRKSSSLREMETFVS
Nature of the test: The compound was evaluated for the inhibition of binding of [125I]-CGP 42112A to AT2 receptor.

The target of test [2] is T2, Type-1 angiotensin II receptor (Homo sapiens) (UniProt P30556).
T2 sequence (whole entry): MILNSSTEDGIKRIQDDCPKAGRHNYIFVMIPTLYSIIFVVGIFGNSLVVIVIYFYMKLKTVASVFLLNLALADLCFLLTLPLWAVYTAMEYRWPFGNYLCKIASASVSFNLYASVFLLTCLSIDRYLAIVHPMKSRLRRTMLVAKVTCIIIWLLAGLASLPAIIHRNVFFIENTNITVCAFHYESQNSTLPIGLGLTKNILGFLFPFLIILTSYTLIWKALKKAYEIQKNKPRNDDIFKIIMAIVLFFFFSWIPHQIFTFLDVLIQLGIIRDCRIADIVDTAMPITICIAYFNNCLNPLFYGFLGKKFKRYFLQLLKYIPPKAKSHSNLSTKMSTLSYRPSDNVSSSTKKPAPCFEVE
Nature of the test: The compound was evaluated for the inhibition of binding of [3H]-DUP 753 to AT1 receptor at 1 uM; not active (</= 10% Inhibition).

The target of test [3] is T2, Type-1 angiotensin II receptor (Homo sapiens). Nature of the test: The compound was evaluated for the inhibition of binding of [3H]-DUP 753 to AT1 receptor at 0.1 uM; not active (</= 10% Inhibition).

SMILES strings stand for the structures. Active and inactive are the calls of the source.

For the compound `Cc1cc(Cn2cnc3c2C[C@@H](C(=O)O)N(C(=O)C(c2ccccc2)c2ccccc2)C3)ccc1NCCCCCCNC(=O)CCNc1ccc([N+](=O)[O-])c2nonc12`, the IC50 (as a rule, the concentration that inhibits the measured activity by half) in test [1] came to 3.6 nM. Moreover, in test [2], the inhibition entry is “inactive”.
For the compound `Cc1cc(Cn2cnc3c2C[C@@H](C(=O)O)N(C(=O)C(c2ccccc2)c2ccccc2)C3)ccc1N(C)C`, in test [3], the inhibition result is “inactive”.
In the case of `Cc1cc(Cn2cnc3c2C[C@@H](C(=O)O)N(C(=O)C(c2ccccc2)c2ccccc2)C3)cc(I)c1O`, in test [1], the IC50 is 5.1 nM. For the same compound, the inhibition entry in test [3] is “inactive”.
As for `Cc1cc(Cn2cnc3c2C[C@@H](C(=O)O)N(C(=O)C(c2ccccc2)c2ccccc2)C3)ccc1NCCCCCCNC(=O)[C@@H](N)CCCCNC(=O)CCCC[C@@H]1SC[C@@H]2NC(=O)N[C@@H]21`, the IC50 in test [1] was found to be 7 nM. For the same compound, the inhibition result in test [3] is “inactive”.
